# Source: the NIST ThermoML archive (doi:10.1021/je100410k)
# ± gives the expanded uncertainty stated by the source.
# Test: activity coefficient (dimensionless); of the first substance listed, at infinite dilution; xn = mol fraction of the nth substance listed
# Settings: 101 kPa, Liquid, Chromatography, x1 = 0
Structure (SMILES),activity coefficient (338.2 K),activity coefficient (348.2 K),activity coefficient (358.2 K),activity coefficient (368.2 K),activity coefficient (338.15 K),activity coefficient (348.15 K),activity coefficient (358.15 K),activity coefficient (368.15 K)
"Cc1ccccc1C [1,2-dimethylbenzene] + CCCCn1cc[n+](C)c1.Cc1ccc(S(=O)(=O)[O-])cc1",4.07 ± 0.28,4.01 ± 0.27,3.96 ± 0.27,3.93 ± 0.27,–,–,–,–
"Cc1cccc(C)c1 [1,3-dimethylbenzene] + CCCCn1cc[n+](C)c1.Cc1ccc(S(=O)(=O)[O-])cc1",4.76 ± 0.32,4.67 ± 0.32,4.63 ± 0.32,4.58 ± 0.31,–,–,–,–
"Cc1ccc(C)cc1 [1,4-dimethylbenzene] + CCCCn1cc[n+](C)c1.Cc1ccc(S(=O)(=O)[O-])cc1",4.73 ± 0.32,4.64 ± 0.32,4.61 ± 0.31,4.56 ± 0.31,–,–,–,–
C=CCCCCC [1-heptene] + CCCCn1cc[n+](C)c1.Cc1ccc(S(=O)(=O)[O-])cc1,24.2 ± 1.7,22.5 ± 1.5,21.5 ± 1.5,20.4 ± 1.4,–,–,–,–
C#CCCCCC [1-heptyne] + CCCCn1cc[n+](C)c1.Cc1ccc(S(=O)(=O)[O-])cc1,5.13 ± 0.35,5.23 ± 0.36,5.34 ± 0.36,5.43 ± 0.37,–,–,–,–
C#CCCCC [1-hexyne] + CCCCn1cc[n+](C)c1.Cc1ccc(S(=O)(=O)[O-])cc1,3.69 ± 0.25,3.78 ± 0.26,3.86 ± 0.26,3.94 ± 0.27,–,–,–,–
C#CCCCCCC [1-octyne] + CCCCn1cc[n+](C)c1.Cc1ccc(S(=O)(=O)[O-])cc1,7.12 ± 0.49,7.28 ± 0.5,7.39 ± 0.5,7.15 ± 0.49,–,–,–,–
C=CCCC [1-pentene] + CCCCn1cc[n+](C)c1.Cc1ccc(S(=O)(=O)[O-])cc1,13.7 ± 0.9,12.6 ± 0.9,11.9 ± 0.8,11.2 ± 0.8,–,–,–,–
COC(C)(C)C [2-methoxy-2-methylpropane] + CCCCn1cc[n+](C)c1.Cc1ccc(S(=O)(=O)[O-])cc1,8.28 ± 0.56,7.84 ± 0.53,7.58 ± 0.52,7.37 ± 0.5,–,–,–,–
CC(C)=O [acetone] + CCCCn1cc[n+](C)c1.Cc1ccc(S(=O)(=O)[O-])cc1,1.48 ± 0.1,1.46 ± 0.1,1.45 ± 0.1,1.42 ± 0.09,–,–,–,–
c1ccccc1 [benzene] + CCCCn1cc[n+](C)c1.Cc1ccc(S(=O)(=O)[O-])cc1,1.96 ± 0.13,1.93 ± 0.13,1.93 ± 0.13,1.93 ± 0.13,–,–,–,–
C1CCCCCC1 [cycloheptane] + CCCCn1cc[n+](C)c1.Cc1ccc(S(=O)(=O)[O-])cc1,17.7 ± 1.2,16.3 ± 1.1,15.4 ± 1.1,14.5 ± 1,–,–,–,–
C1CCCCC1 [cyclohexane] + CCCCn1cc[n+](C)c1.Cc1ccc(S(=O)(=O)[O-])cc1,16.3 ± 1.1,14.6 ± 1,13.4 ± 0.9,12.5 ± 0.9,–,–,–,–
C1CCCCCCC1 [cyclooctane] + CCCCn1cc[n+](C)c1.Cc1ccc(S(=O)(=O)[O-])cc1,21.3 ± 1.5,19.7 ± 1.3,18.6 ± 1.3,17.6 ± 1.2,–,–,–,–
C1CCCC1 [cyclopentane] + CCCCn1cc[n+](C)c1.Cc1ccc(S(=O)(=O)[O-])cc1,11.3 ± 0.8,9.9 ± 0.7,9.3 ± 0.6,9 ± 0.6,–,–,–,–
CCCCCCCCCC [decane] + CCCCn1cc[n+](C)c1.Cc1ccc(S(=O)(=O)[O-])cc1,119 ± 8.1,106 ± 7.3,98.3 ± 6.7,90.8 ± 6.2,–,–,–,–
CCOCC [diethyl ether] + CCCCn1cc[n+](C)c1.Cc1ccc(S(=O)(=O)[O-])cc1,6.57 ± 0.45,6.36 ± 0.43,6.16 ± 0.42,5.93 ± 0.4,–,–,–,–

Structure (SMILES),activity coefficient (338.2 K),activity coefficient (348.2 K),activity coefficient (358.2 K),activity coefficient (368.2 K),activity coefficient (338.15 K),activity coefficient (348.15 K),activity coefficient (358.15 K),activity coefficient (368.15 K)
CCCOCCC [dipropyl ether] + CCCCn1cc[n+](C)c1.Cc1ccc(S(=O)(=O)[O-])cc1,15.5 ± 1.1,15.2 ± 1,14.2 ± 1,13.6 ± 0.9,–,–,–,–
CCO [ethanol] + CCCCn1cc[n+](C)c1.Cc1ccc(S(=O)(=O)[O-])cc1,0.359 ± 0.033,0.357 ± 0.033,0.358 ± 0.033,0.358 ± 0.033,–,–,–,–
CCc1ccccc1 [ethylbenzene] + CCCCn1cc[n+](C)c1.Cc1ccc(S(=O)(=O)[O-])cc1,4.45 ± 0.3,4.4 ± 0.3,4.36 ± 0.3,4.32 ± 0.29,–,–,–,–
CCCCCCC [heptane] + CCCCn1cc[n+](C)c1.Cc1ccc(S(=O)(=O)[O-])cc1,–,–,–,–,48.1 ± 3.3,42.2 ± 2.9,39.2 ± 2.7,36.6 ± 2.5
C=CCCCC [hex-1-ene] + CCCCn1cc[n+](C)c1.Cc1ccc(S(=O)(=O)[O-])cc1,18 ± 1.2,16.6 ± 1.1,15.7 ± 1.1,14.9 ± 1,–,–,–,–
CCCCCC [hexane] + CCCCn1cc[n+](C)c1.Cc1ccc(S(=O)(=O)[O-])cc1,–,–,–,–,36.3 ± 2.5,31.5 ± 2.2,29.2 ± 2,27.6 ± 1.9
CO [methanol] + CCCCn1cc[n+](C)c1.Cc1ccc(S(=O)(=O)[O-])cc1,0.217 ± 0.029,0.219 ± 0.029,0.221 ± 0.029,0.223 ± 0.029,–,–,–,–
CCCCCCCCC [nonane] + CCCCn1cc[n+](C)c1.Cc1ccc(S(=O)(=O)[O-])cc1,86.1 ± 5.9,77.5 ± 5.3,71.3 ± 4.9,66.5 ± 4.6,–,–,–,–
C=CCCCCCC [oct-1-ene] + CCCCn1cc[n+](C)c1.Cc1ccc(S(=O)(=O)[O-])cc1,33.1 ± 2.3,31 ± 2.1,29.5 ± 2,28.2 ± 1.9,–,–,–,–
CCCCCCCC [octane] + CCCCn1cc[n+](C)c1.Cc1ccc(S(=O)(=O)[O-])cc1,63.9 ± 4.4,57.7 ± 4,53 ± 3.6,49.6 ± 3.4,–,–,–,–
CCCC(C)=O [pentan-2-one] + CCCCn1cc[n+](C)c1.Cc1ccc(S(=O)(=O)[O-])cc1,2.68 ± 0.18,2.64 ± 0.18,2.61 ± 0.18,2.58 ± 0.18,–,–,–,–
CCC(=O)CC [pentan-3-one] + CCCCn1cc[n+](C)c1.Cc1ccc(S(=O)(=O)[O-])cc1,2.68 ± 0.18,2.65 ± 0.18,2.63 ± 0.18,2.6 ± 0.18,–,–,–,–
CCCO [propan-1-ol] + CCCCn1cc[n+](C)c1.Cc1ccc(S(=O)(=O)[O-])cc1,0.437 ± 0.035,0.434 ± 0.035,0.437 ± 0.035,0.437 ± 0.035,–,–,–,–
C1CCOC1 [tetrahydrofuran] + CCCCn1cc[n+](C)c1.Cc1ccc(S(=O)(=O)[O-])cc1,1.88 ± 0.13,1.87 ± 0.13,1.86 ± 0.13,1.85 ± 0.12,–,–,–,–
c1ccsc1 [thiophene] + CCCCn1cc[n+](C)c1.Cc1ccc(S(=O)(=O)[O-])cc1,1.11 ± 0.07,1.13 ± 0.07,1.14 ± 0.07,1.16 ± 0.07,–,–,–,–
Cc1ccccc1 [toluene] + CCCCn1cc[n+](C)c1.Cc1ccc(S(=O)(=O)[O-])cc1,3.03 ± 0.21,3.01 ± 0.2,2.99 ± 0.2,2.97 ± 0.2,–,–,–,–
O [water] + CCCCn1cc[n+](C)c1.Cc1ccc(S(=O)(=O)[O-])cc1,0.191 ± 0.029,0.196 ± 0.029,0.201 ± 0.029,0.207 ± 0.029,–,–,–,–
